The source of these data is ChEMBL document CHEMBL1208745, “6-Phenyl-1H-imidazo[4,5-c]pyridine-4-carbonitrile as cathepsin S inhibitors” (Bioorg Med Chem Lett, 2010).

The source made the active and inactive calls. Some results are limits rather than exact numbers.

Series [1] in a line: Oral bioavailability in Wistar rat at 10 mg/kg. The series is classed as ADME, organism-based. The note with it: in vivo.
Series [2] deals with T1, Cathepsin S (Homo sapiens, UniProt P25774). In words: Inhibition of human cathepsin S by fluorescence assay.
The target in series [3] is T2, Cathepsin S (Mus musculus, UniProt O70370). The series can be described thus: Inhibition of mouse cathepsin S by fluorescence assay.
Series [4] addresses Procathepsin L (Homo sapiens) (UniProt P07711). The series can be described thus: Inhibition of human cathepsin L by fluorescence assay.
The nature of series [5]: Plasma clearance in Wistar rat at 2 mg/kg, iv and 10 mg/kg, po. The series is classed as ADME, organism-based.
For series [6], the target named is Cathepsin B (Homo sapiens) (UniProt P07858). In words: Inhibition of human cathepsin B by fluorescence assay.
Series [7] deals with T3, Cathepsin K (Homo sapiens, UniProt P43235).
T3 sequence (P43235 whole entry): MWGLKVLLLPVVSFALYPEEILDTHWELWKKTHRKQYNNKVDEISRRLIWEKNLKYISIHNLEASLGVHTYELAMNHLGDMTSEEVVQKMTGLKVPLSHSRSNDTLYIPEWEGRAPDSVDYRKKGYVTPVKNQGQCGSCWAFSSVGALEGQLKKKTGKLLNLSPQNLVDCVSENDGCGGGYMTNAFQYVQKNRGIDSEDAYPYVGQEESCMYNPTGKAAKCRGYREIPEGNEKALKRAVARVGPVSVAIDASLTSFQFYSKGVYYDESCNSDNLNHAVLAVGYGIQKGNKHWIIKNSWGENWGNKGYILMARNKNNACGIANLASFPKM
In words: Inhibition of human cathepsin K by fluorescence assay.

Series [8] in a line: Chemical stability of the compound assessed as half life at 1.25 mM at pH 7.5 by nitrile war-head stability assay in presence of GSH. The series is classed as physicochemical.
Series [9] has as its target T1, Cathepsin S. The series can be described thus: Inhibition of cathepsin S-mediated proteolytic cleavage of MHC2 associated invariant chain in human JY cells assessed as accumulation of lip10 by Western blot analysis. The series is classed as cell-based.
Series [10] is described as follows: Volume of distribution at steady state in Wistar rat at 2 mg/kg, iv and 10 mg/kg, po. The series is classed as ADME, organism-based. The note with it: in vivo, read-out: Vdss.
Series [11] concerns Mus musculus. The series can be described thus: Induction of Lip10 accumulation in C57/BL6 mouse spleen at 0.3 mg/kg, po after 4 hrs by Western blot analysis. The series is classed as functional, organism-based. The arrangement: dose 0.3 mg/kg. The note with it: C57Bl/6.
The target of series [12] is T2, Cathepsin S. The series can be described thus: Inhibition of cathepsin S-mediated proteolytic cleavage of MHC2 associated invariant chain in mouse splenocytes assessed as accumulation of lip10 by Western blot analysis. The series is classed as cell-based. (In western blotting, separated proteins are transferred to a membrane and probed.)
Series [13] is described as follows: Ratio of drug level in spleen to plasma in C57/BL6 mouse at 0.3 mg/kg, po. The arrangement: dose 0.3 mg/kg, route oral. The series is classed as ADME, organism-based, C57Bl/6.
A short description of series [14]: Chemical stability of the compound assessed as half life at 1.15 mM at pH 7.5 by nitrile war-head stability assay in presence of GSH. The series is classed as physicochemical.
Series [15] can be described thus: Chemical stability of the compound assessed as half life at 1.24 mM at pH 7.5 by nitrile war-head stability assay in presence of GSH. The series is classed as physicochemical.

Chain of Procathepsin L (Homo sapiens) (P07711 114-333 limits assumed): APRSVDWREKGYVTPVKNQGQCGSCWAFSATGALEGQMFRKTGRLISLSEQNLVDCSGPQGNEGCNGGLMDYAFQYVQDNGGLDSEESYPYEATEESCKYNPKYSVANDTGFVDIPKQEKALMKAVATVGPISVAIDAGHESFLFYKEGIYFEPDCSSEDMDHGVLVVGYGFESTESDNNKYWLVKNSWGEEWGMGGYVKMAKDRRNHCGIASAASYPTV
T1 sequence (P25774 whole entry): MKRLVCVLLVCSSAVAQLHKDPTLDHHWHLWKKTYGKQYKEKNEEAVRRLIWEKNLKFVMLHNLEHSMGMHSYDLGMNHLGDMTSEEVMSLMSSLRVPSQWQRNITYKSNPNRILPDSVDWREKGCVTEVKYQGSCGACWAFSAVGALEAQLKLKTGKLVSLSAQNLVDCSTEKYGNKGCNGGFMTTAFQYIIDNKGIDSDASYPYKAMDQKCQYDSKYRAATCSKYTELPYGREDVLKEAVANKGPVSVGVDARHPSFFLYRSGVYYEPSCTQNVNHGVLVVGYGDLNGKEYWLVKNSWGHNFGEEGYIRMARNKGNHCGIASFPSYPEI
T2 sequence (O70370 whole entry): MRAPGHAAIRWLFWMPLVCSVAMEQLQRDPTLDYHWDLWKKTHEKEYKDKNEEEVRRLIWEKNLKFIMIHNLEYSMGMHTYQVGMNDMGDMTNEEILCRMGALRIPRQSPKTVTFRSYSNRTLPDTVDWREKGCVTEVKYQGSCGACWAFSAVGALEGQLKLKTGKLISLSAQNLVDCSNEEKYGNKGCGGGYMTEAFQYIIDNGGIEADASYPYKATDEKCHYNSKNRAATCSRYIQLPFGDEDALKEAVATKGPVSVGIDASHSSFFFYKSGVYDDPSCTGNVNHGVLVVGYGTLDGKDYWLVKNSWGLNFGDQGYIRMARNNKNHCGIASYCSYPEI

Broadly, the bioavailability is dose-corrected exposure relative to a reference, in per cent. Read a low bioavailability as poor availability. As usually defined, the IC50 is the concentration at which inhibition is half-maximal. One may read the half-life as the time needed for the level to fall by half in the phase considered. In general, Kp refers to tissue or fluid exposure divided by exposure in the circulation. With `CCN1CCN(CCCOc2ccc(-c3cc4c(ncn4C)c(C#N)n3)cc2C(F)(F)F)CC1`, the bioavailability in series [1] is 9%. Also, the 50% inhibitory concentration (IC50) in [2] worked out at 7.2 nM; in series [3] it was 2.6 nM; in [7], 331 nM; in [9], 63 nM; in series [12], 6.5 nM. Besides, the inhibition result in [4] and in series [6] was “inactive” in each case. In series [5], this compound yielded a clearance of 28 mL/min/kg. Besides, the half-life at 1250 µM in [8] was > 100 h. Besides, the Vd in [10] amounted to 2 L/kg. In addition, the outcome in series [11] was Active. In addition, the Kp in [13] was 50.

In the case of `CN1CCN(CCCOc2ccc(-c3ccnc(C#N)n3)cc2C(F)(F)F)CC1`, in [14], the half-life at 1150 µM was < 0.25 h.

In turn, `Cn1cnc2c(C#N)nc(-c3ccc(OCc4ccccn4)c(C(F)(F)F)c3)cc21` returned a bioavailability in series [1] of 54%. The IC50 in series [2] amounted to 20 nM; in series [3] it was 2.5 nM; in series [7], 2290 nM; in [9] it was 853 nM. In addition, the inhibition entry in series [4] and in [6] was “inactive” in each case. Besides, the clearance in series [5] stood at 327 mL/min/kg. Moreover, in series [10], the Vd amounted to 0.7 L/kg.

For `CN1CCN(CCCOc2ccc(-c3cccc(C#N)n3)cc2C(F)(F)F)CC1`, the half-life at 1240 µM in series [15] is > 100 h.

In turn, `CN(C)CCCOc1ccc(-c2cc3c(ncn3C)c(C#N)n2)cc1C(F)(F)F` gave a bioavailability in series [1] of 58%. In addition, the 50% inhibitory concentration (IC50) in [2] was 41 nM; in series [3], 2.6 nM; in [7], 776 nM; in [9], 84 nM. The inhibition entry in series [4] and in series [6] was “inactive” throughout. This compound gave a clearance in [5] of 10 mL/min/kg. For the same compound, the Vd in series [10] is 58 L/kg.
